In EPA's ToxValDB 9.5 (doi:10.2903/j.efsa.2008.138r):
In brackets after ≈: the same amount, converted by molar mass.

How the values were obtained:
Aphidius rhopalosiphi [1] = assay: LR50; higher = less toxic; settings: not reported; mortality
Beta vulgaris = settings: acute; duration: 14 days; other
Apis mellifera = settings: acute; duration: 48 hours; oral; unspecified; mortality
Daphnia magna = settings: chronic/long-term; duration: 21 days; reproduction
Oncorhynchus mykiss = settings: acute; duration: 96 hours; mortality
Colinus virginianus = settings: for LD50: acute, oral, mortality
Mus musculus = settings: chronic; duration: 18 months; histopathology: neoplastic
Pleurozium sp. = settings: acute; duration: 72 hours; biomass
Canidae = settings: chronic; duration: 1 years; oral; Dog Other; clinical chemistry
Aphidius rhopalosiphi [2] = settings: not reported; reproduction
Bibionidae = settings: chronic/long-term; duration: 21 days; other

For `Fc1ccc([C@@]2(Cn3cncn3)O[C@@H]2c2ccccc2Cl)cc1` [Epoxiconazole], the LR50 (Aphidius rhopalosiphi [1]) was > 246 g/ha, the LEL (Beta vulgaris) was 250 g/ha and the LD50 (Apis mellifera) was > 83 µg/piece. The NOEC (Daphnia magna) was 0.63 mg/L, the LC50 (Oncorhynchus mykiss) was 3.14 µg/mL (≈ 9.52 µM) and the LD50 (Colinus virginianus; diet) was > 5000 mg/kg. For the same compound, the LD50 (Colinus virginianus) was > 2000 mg/kg, the NOEL (Colinus virginianus; reproduction developmental) was 1 mg/kg-day and the NOAEL (Mus musculus) was 0.8 mg/kg-day. For the same compound, the LD50 (Rattus norvegicus; acute, oral, mortality) was 3160 mg/kg, the NOAEL (Rattus norvegicus; reproduction developmental, reproduction) was 2.3 mg/kg-day and the NOEC (Pleurozium sp.) was 0.0078 mg/L. For the same compound, the LC50 (Tagia sp.; acute, duration: 14 days, mortality) was > 1000 mg/kg, the NOEC (Tagia sp.; chronic/long-term, reproduction) was 0.167 mg/kg and the NOAEL (Canidae) was 1.6 mg/kg-day. The LEL (Aphidius rhopalosiphi [2]) was 246 g/ha and the NOEC (Bibionidae) was 0.0625 mg/L.
